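At the GI50, growth is halved. TGI marks complete inhibition of growth.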
Key:
Test in all cases: inhibition of tumour cell growth, NCI panel, 384-well format
SNB-19 CNS = tested on: SNB-19 CNS
NCI-H23 lung = tested on: NCI-H23 lung
UACC-257 melanoma = tested on: UACC-257 melanoma
A498 renal = tested on: A498 renal
SF-539 CNS = tested on: SF-539 CNS
HCT-15 colon = tested on: HCT-15 colon
SK-MEL-28 melanoma = tested on: SK-MEL-28 melanoma
BT-549 breast = tested on: BT-549 breast
NCI/ADR-RES ovarian = tested on: NCI/ADR-RES ovarian
U251 glioblastoma = tested on: U251 glioblastoma
HS 578T breast = tested on: HS 578T breast
SN12C renal = tested on: SN12C renal
SF-295 CNS = tested on: SF-295 CNS
COLO 205 colon = tested on: COLO 205 colon
NCI-H226 lung = tested on: NCI-H226 lung
DU-145 prostate = tested on: DU-145 prostate
A549 NSCLC = tested on: A549 NSCLC
EKVX NSCLC = tested on: EKVX NSCLC
MALME-3M melanoma = tested on: MALME-3M melanoma
UACC-62 melanoma = tested on: UACC-62 melanoma
CAKI-1 renal = tested on: CAKI-1 renal
SK-OV-3 ovarian = tested on: SK-OV-3 ovarian
MOLT-4 leukemia = tested on: MOLT-4 leukemia
RPMI-8226 leukemia = tested on: RPMI-8226 leukemia
M14 melanoma = tested on: M14 melanoma
TK-10 renal = tested on: TK-10 renal
HOP-62 NSCLC = tested on: HOP-62 NSCLC
MDA-MB-231 breast = tested on: MDA-MB-231 breast
SNB-75 CNS = tested on: SNB-75 CNS
KM12 colon = tested on: KM12 colon
NCI-H522 lung = tested on: NCI-H522 lung
SK-MEL-5 melanoma = tested on: SK-MEL-5 melanoma
MDA-MB-468 breast = tested on: MDA-MB-468 breast
IGROV1 ovarian = tested on: IGROV1 ovarian
MDA-MB-435 melanoma = tested on: MDA-MB-435 melanoma
NCI-H322M lung = tested on: NCI-H322M lung
OVCAR-3 ovarian = tested on: OVCAR-3 ovarian
SR leukemia = tested on: SR leukemia
ACHN renal = tested on: ACHN renal
HL-60(TB) leukemia = tested on: HL-60(TB) leukemia
HCC-2998 colon = tested on: HCC-2998 colon
NCI-H460 NSCLC = tested on: NCI-H460 NSCLC
SF-268 CNS = tested on: SF-268 CNS
MCF7 breast = tested on: MCF7 breast
HCT-116 colon = tested on: HCT-116 colon
OVCAR-4 ovarian = tested on: OVCAR-4 ovarian
HT29 colon = tested on: HT29 colon
786-0 renal = tested on: 786-0 renal
PC-3 prostate = tested on: PC-3 prostate
SW-620 colon = tested on: SW-620 colon
RXF 393 renal = tested on: RXF 393 renal
T-47D breast = tested on: T-47D breast
UO-31 renal = tested on: UO-31 renal
LOX IMVI melanoma = tested on: LOX IMVI melanoma
OVCAR-5 ovarian = tested on: OVCAR-5 ovarian
HOP-92 NSCLC = tested on: HOP-92 NSCLC
OVCAR-8 ovarian = tested on: OVCAR-8 ovarian

## O=C(NC1CCNCC1)c1[nH]ncc1NC(=O)c1c(Cl)cccc1Cl
SNB-19 CNS
  GI50: 326 nM
  TGI: > 100000 nM
NCI-H23 lung
  GI50: 180 nM
  TGI: 345 nM
UACC-257 melanoma
  GI50: 246 nM
  TGI: 564 nM
A498 renal
  GI50: 304 nM
  TGI: 879 nM
SF-539 CNS
  GI50: 212 nM
  TGI: 454 nM
HCT-15 colon
  GI50: 3520 nM
  TGI: 43500 nM
SK-MEL-28 melanoma
  GI50: 187 nM
  TGI: 394 nM
BT-549 breast
  GI50: 183 nM
  TGI: 377 nM
NCI/ADR-RES ovarian
  GI50: > 100000 nM
  TGI: > 100000 nM
U251 glioblastoma
  GI50: 268 nM
  TGI: 703 nM
HS 578T breast
  GI50: 209 nM
  TGI: 477 nM
SN12C renal
  GI50: 181 nM
  TGI: 395 nM
SF-295 CNS
  GI50: 352 nM
  TGI: > 100000 nM
COLO 205 colon
  GI50: 126 nM
  TGI: 391 nM
NCI-H226 lung
  GI50: 205 nM
  TGI: 527 nM
DU-145 prostate
  GI50: 260 nM
  TGI: 692 nM
A549 NSCLC
  GI50: 388 nM
  TGI: > 100000 nM
EKVX NSCLC
  GI50: 366 nM
  TGI: 1830 nM
MALME-3M melanoma
  GI50: 182 nM
  TGI: 348 nM
UACC-62 melanoma
  GI50: 169 nM
  TGI: 369 nM
CAKI-1 renal
  GI50: 371 nM
  TGI: > 100000 nM
SK-OV-3 ovarian
  GI50: 362 nM
  TGI: > 100000 nM
MOLT-4 leukemia
  GI50: 200 nM
  TGI: 344 nM
RPMI-8226 leukemia
  GI50: 200 nM
  TGI: 344 nM
M14 melanoma
  GI50: 257 nM
  TGI: 619 nM
TK-10 renal
  GI50: 528 nM
  TGI: 9380 nM
HOP-62 NSCLC
  GI50: 212 nM
  TGI: 500 nM
MDA-MB-231 breast
  GI50: 256 nM
  TGI: > 100000 nM
SNB-75 CNS
  GI50: 194 nM
  TGI: 356 nM
KM12 colon
  GI50: 176 nM
  TGI: > 100000 nM
NCI-H522 lung
  GI50: 202 nM
  TGI: 384 nM
SK-MEL-5 melanoma
  GI50: 183 nM
  TGI: 337 nM
MDA-MB-468 breast
  GI50: 157 nM
  TGI: 296 nM
IGROV1 ovarian
  GI50: 286 nM
  TGI: 809 nM
MDA-MB-435 melanoma
  GI50: 191 nM
  TGI: 379 nM
NCI-H322M lung
  GI50: 197 nM
  TGI: 477 nM
OVCAR-3 ovarian
  GI50: 163 nM
  TGI: 347 nM
SR leukemia
  GI50: 18.5 nM
  TGI: 37.3 nM
ACHN renal
  GI50: 2360 nM
  TGI: 34900 nM
HL-60(TB) leukemia
  GI50: 105 nM
  TGI: 224 nM
HCC-2998 colon
  GI50: 151 nM
  TGI: 360 nM
NCI-H460 NSCLC
  GI50: 168 nM
  TGI: 379 nM
SF-268 CNS
  GI50: 186 nM
  TGI: 478 nM
MCF7 breast
  GI50: 59 nM
  TGI: > 100000 nM
HCT-116 colon
  GI50: 202 nM
  TGI: > 100000 nM
OVCAR-4 ovarian
  GI50: 262 nM
  TGI: 560 nM

## Nc1cccc2c1CN(C1CCC(=O)NC1=O)C2=O (stereo unspecified)
SNB-19 CNS
  GI50: > 100000 nM
  TGI: > 100000 nM
NCI-H23 lung
  GI50: > 100000 nM
  TGI: > 100000 nM
UACC-257 melanoma
  GI50: > 100000 nM
  TGI: > 100000 nM
A498 renal
  GI50: > 100000 nM
  TGI: > 100000 nM
SF-539 CNS
  GI50: > 100000 nM
  TGI: > 100000 nM
HCT-15 colon
  GI50: > 100000 nM
  TGI: > 100000 nM
HT29 colon
  GI50: > 100000 nM
  TGI: > 100000 nM
SK-MEL-28 melanoma
  GI50: > 100000 nM
  TGI: > 100000 nM
BT-549 breast
  GI50: > 100000 nM
  TGI: > 100000 nM
786-0 renal
  GI50: > 100000 nM
  TGI: > 100000 nM
NCI/ADR-RES ovarian
  GI50: > 100000 nM
  TGI: > 100000 nM
U251 glioblastoma
  GI50: > 100000 nM
  TGI: > 100000 nM
HS 578T breast
  GI50: > 100000 nM
  TGI: > 100000 nM
SN12C renal
  GI50: > 100000 nM
  TGI: > 100000 nM
SF-295 CNS
  GI50: > 100000 nM
  TGI: > 100000 nM
COLO 205 colon
  GI50: > 100000 nM
  TGI: > 100000 nM
PC-3 prostate
  GI50: > 100000 nM
  TGI: > 100000 nM
SW-620 colon
  GI50: > 100000 nM
  TGI: > 100000 nM
NCI-H226 lung
  GI50: > 100000 nM
  TGI: > 100000 nM
DU-145 prostate
  GI50: > 100000 nM
  TGI: > 100000 nM
A549 NSCLC
  GI50: > 100000 nM
  TGI: > 100000 nM
EKVX NSCLC
  GI50: > 100000 nM
  TGI: > 100000 nM
MALME-3M melanoma
  GI50: > 100000 nM
  TGI: > 100000 nM
UACC-62 melanoma
  GI50: > 100000 nM
  TGI: > 100000 nM
CAKI-1 renal
  GI50: > 100000 nM
  TGI: > 100000 nM
SK-OV-3 ovarian
  GI50: > 100000 nM
  TGI: > 100000 nM
RXF 393 renal
  GI50: > 100000 nM
  TGI: > 100000 nM
MOLT-4 leukemia
  GI50: > 100000 nM
  TGI: > 100000 nM
T-47D breast
  GI50: > 100000 nM
  TGI: > 100000 nM
UO-31 renal
  GI50: > 100000 nM
  TGI: > 100000 nM
RPMI-8226 leukemia
  GI50: > 100000 nM
  TGI: > 100000 nM
M14 melanoma
  GI50: > 100000 nM
  TGI: > 100000 nM
TK-10 renal
  GI50: > 100000 nM
  TGI: > 100000 nM
HOP-62 NSCLC
  GI50: > 100000 nM
  TGI: > 100000 nM
MDA-MB-231 breast
  GI50: > 100000 nM
  TGI: > 100000 nM
SNB-75 CNS
  GI50: > 100000 nM
  TGI: > 100000 nM
KM12 colon
  GI50: > 100000 nM
  TGI: > 100000 nM
LOX IMVI melanoma
  GI50: > 100000 nM
  TGI: > 100000 nM
OVCAR-5 ovarian
  GI50: > 100000 nM
  TGI: > 100000 nM
NCI-H522 lung
  GI50: > 100000 nM
  TGI: > 100000 nM
SK-MEL-5 melanoma
  GI50: > 100000 nM
  TGI: > 100000 nM
MDA-MB-468 breast
  GI50: > 100000 nM
  TGI: > 100000 nM
IGROV1 ovarian
  GI50: > 100000 nM
  TGI: > 100000 nM
HOP-92 NSCLC
  GI50: > 100000 nM
  TGI: > 100000 nM
MDA-MB-435 melanoma
  GI50: > 100000 nM
  TGI: > 100000 nM
NCI-H322M lung
  GI50: > 100000 nM
  TGI: > 100000 nM
OVCAR-8 ovarian
  GI50: > 100000 nM
  TGI: > 100000 nM
OVCAR-3 ovarian
  GI50: > 100000 nM
  TGI: > 100000 nM
SR leukemia
  GI50: > 100000 nM
  TGI: > 100000 nM
ACHN renal
  GI50: > 100000 nM
  TGI: > 100000 nM
HL-60(TB) leukemia
  GI50: > 100000 nM
  TGI: > 100000 nM
HCC-2998 colon
  GI50: > 100000 nM
  TGI: > 100000 nM
NCI-H460 NSCLC
  GI50: > 100000 nM
  TGI: > 100000 nM
SF-268 CNS
  GI50: > 100000 nM
  TGI: > 100000 nM
MCF7 breast
  GI50: > 100000 nM
  TGI: > 100000 nM
HCT-116 colon
  GI50: > 100000 nM
  TGI: > 100000 nM
OVCAR-4 ovarian
  GI50: > 100000 nM
  TGI: > 100000 nM
